Reference: patent publication US7553849B2, “Compounds” (Active Biotech AB, priority 2004, dated 2009)

Test system: acute experimental autoimmune encephalomyelitis (aEAE)
Test: Acute experimental autoimmune encephalomyelitis (aEAE) inhibition in mice
Assay type: in vivo
Conditions: for activity in the aEAE model (in words): mice, no dose stated; for aEAE inhibition (%): percent inhibition of clinical scores vs saline controls
[1] = SJL/N female mice, dose 0.2 mg/kg po daily at days 3 to 7 and 10 to 12
[2] = SJL/N female mice, dose 1.0 mg/kg po daily at days 3 to 7 and 10 to 12
[3] = SJL/N female mice, dose 5.0 mg/kg po daily at days 3 to 7 and 10 to 12

SMILES | activity in the aEAE model (in words) | aEAE inhibition (%) [1] | aEAE inhibition (%) [2] | other results
O=C(Nc1cccnc1)c1c(O)c2ccsc2[nH]c1=O [6,7-dihydro-4-hydroxy-N-(3-pyridyl)-6-oxo-thieno[2,3-b]pyridine-5-carboxamide, reference compound] | inactive |  |  | 
Cc1csc2c1c(O)c(C(=O)N(C)c1ccccc1)c(=O)n2C [Compound #1, 6,7-dihydro-4-hydroxy-N-phenyl-N,3,7-trimethyl-6-oxo-thieno[2,3-b]pyridine-5-carboxamide] |  | 85% | 99% | 
CCN(C(=O)c1c(O)c2c(C)csc2n(C)c1=O)c1ccccc1 [compound 2, 6,7-dihydro-3,7-dimethyl-N-ethyl-4-hydroxy-N-phenyl-6-oxo-thieno[2,3-b]pyridine-5-carboxamide] |  | 66% | 84% | 
CCc1csc2c1c(O)c(C(=O)N(C)c1ccccc1)c(=O)n2C [compound 3, 6,7-dihydro-N,7-dimethyl-3-ethyl-4-hydroxy-N-phenyl-6-oxo-thieno[2,3-b]pyridine-5-carboxamide] |  | 84% | 100% | 
COc1ccc(N(C)C(=O)c2c(O)c3c(C)csc3n(C)c2=O)cc1 [compound 6, 6,7-dihydro-4-hydroxy-N-(4-methoxyphenyl)-N,3,7-trimethyl-6-oxo-thieno[2,3-b]pyridine-5-carboxamide] |  | 92% |  | 
Cc1scc2c1c(O)c(C(=O)N(C)c1ccccc1)c(=O)n2C [compound 10, 4,5-dihydro-7-hydroxy-N-phenyl-N,1,4-trimethyl-5-oxo-2-thia-4-aza-indene-6-carboxamide] |  |  | 78% | aEAE inhibition (%) [3]: 95%
CN(C(=O)c1c(O)c2ccsc2n(C)c1=O)c1ccccc1 [compound 11, 6,7-dihydro-N,7-dimethyl-4-hydroxy-N-phenyl-6-oxo-thieno[2,3-b]pyridine-5-carboxamide] |  |  | 53% | 
CN(C(=O)c1c(O)c2sccc2n(C)c1=O)c1ccccc1 [compound 12, 4,5-dihydro-N,4-dimethyl-7-hydroxy-N-phenyl-5-oxo-thieno[3,2-b]pyridine-6-carboxamide, reference compound] | inactive |  |  | aEAE inhibition (%), result in words (SJL/N female mice, dose 5.0 mg/kg po, class word defined in footnote): inactive*
Cc1csc2c1c(O)c(C(=O)N(C)c1cccnc1)c(=O)n2C [compound 13, 6,7-dihydro-4-hydroxy-N-(3-pyridyl)-N,3,7-trimethyl-6-oxo-thieno[2,3-b]pyridine-5-carboxamide, reference compound] | poorly active |  |  | aEAE inhibition (%) [3]: 46%
